Test results taken from patent US10604514B2, “6-(5-membered heteroaryl)isoquinolin-3-yl carboxamides and preparation and use thereof” (Samumed, LLC, priority 2017, dated 2020).

Key:
IL-6 = IL-6 inhibition in LPS-stimulated human peripheral blood mononuclear cells (HTRF); format: cell-based; details: Homo sapiens, PBMC; for EC50: IL-6, LPS-stimulated huPBMCs, HTRF; for inhibition at 10 µM: read-out: percent value in parentheses below EC50 >10
Summary of the method: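 Fresh human PBMCs (5000 cells/well, 1% FBS RPMI) preincubated with compound (10-point 1:3 series from 10 μM, 0.25% DMSO) 2 h at 37 °C, then stimulated with 50 ng/mL E. coli LPS for 22 h. IL-6 by HTRF 665/620 ratio; DMSO-normalized, EC50 from 4-parameter fit.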

[1] = system: Tau phosphorylation at Threonine 212 (pT212Tau), HEK293T cells; test: Tau phosphorylation at Threonine 212 (pT212Tau) in Dyrk1a- and MAPT-overexpressing HEK293T cells, sandwich ELISA; format: cell-based; details: Homo sapiens, HEK-293T, overnight (16-18 hours), read-out: Thr212 EC50
Method: Representative compounds were screened using the cell-based assay procedure for signal of Tau phosphorylation at Threonine 212 (pT212Tau) in a transiently double transfected (Dyrk1a- and MAPT-overexpressing) cell type as described below.
HEK293T cells (transfectable human embryonic kidney cells) were cultured in DMEM medium supplemented with 10% FBS and 1% penicillin/streptomycin.
HEK293T cells were transiently transfected to overexpress Dyrkla and microtubule-associated protein Tau (MAPT) genes. Specifically, Dyrkla and MAPT expression vectors were obtained from OriGene (10 μg of each, catalog numbers SC314641 and RC216166, respectively). A MaxiPrep for each vector was ordered and received from GeneWiz, yielding […] (resuspended at […]) of the Dyrkla expression vector, and 898 μg (resuspended at 1.796 μg/μL) of MAPT.
HEK293T cells were seeded at 1.0×10^7 cells in 10 mL per T-75 flask. […] One T-75 flask was designated as a no-vector negative control for pT212Tau signal.
After 4˜6 hours of incubation in transfection reagents, transiently double transfected HEK293T cells were dissociated by treatment with trypsin EDTA and seeded at 1.0×10^5 cells in 100 μL per well in 96-well plates. No-vector negative controls were seeded in separate 96-well plates to avoid the risk of the negative control cells picking up the overexpression during incubation. At the time of seeding, DMSO-resuspended Samumed compounds were dispensed to eight wells as a serial dilution from 10 μM to 4.6 nM final concentration in medium, or at 0.12 μM to 0.05 nM with particularly potent compounds. Cells were exposed to the representative compounds overnight (16-18 hours) in a 37° C. incubator.
96-Well flat-bottom plates were coated with 100 μL per well anti-HT7 capture antibody (ThermoFisher, MN1000) diluted 1:300 in 1×PBS at 4° C. overnight, with shaking at 500 rpm. After overnight capture antibody incubation, coated plates were washed four times with 200 µL per well of 1×PBS-0.05% Tween-20, and blocked for 1 hour with 200 μL per well of 1×PBS with 2% BSA. After 1 hour of blocking, plates were washed four times with 200 μL per well of 1×PBS-0.05% Tween-20, prior to sample loading.
Wells of compound-treated cells were visually checked for cell death before being washed with 200 μL per well of 1×DPBS supplemented with phosphatase inhibitor diluted to IX. Cells were then lysed with 100 μL 1×RIPA buffer supplemented with phosphatase and protease inhibitors (each diluted to a final 1×). Cells were shaken at 500 rpm, 4° C. for 20 minutes prior to further lysis (via manual scraping) and transfer to 96-well V-bottom collection plates (Corning, 3894). V-bottom plates were centrifuged at 4000 rpm, 4° C., for 15 minutes, and 100 μL of lysate supernatant from each well was directly tested for pT212Tau signal by sandwich ELISA.
Specifically, lysates were directly transferred to the coated and blocked ELISA plates for 2 hours before plates were washed four times with 200 μL per well of 1×PBS-0.05% Tween-20 and probed with 100 μL per well of anti-pT212Tau antibody (ThermoFisher, 44-740G) diluted 1:200 in 1×PBS for 2 hours. Plates were washed four times with 200 μL per well of 1×PBS-0.05% Tween-20 and probed with 100 μL per well of anti-rabbit/HRP conjugate (Cell Signaling Technology, 7074S) diluted 1:600 in 1×PBS for 1 hour. Plates were washed four times with 200 μL per well of 1×PBS-0.05% Tween-20 before 100 μL per well of TMB substrate solution (ThermoFisher, N301) was added. When colour development was observed, 100 μL per well of stop solution (ThermoFisher, N600) was added, and colorimetric detection of pT212Tau signal was read at 450 nm with the Cytation 3 Cell Imaging Multi-Mode Reader (BioTek). The signal was used to plot, draw the curves fitting, and determine the EC50 values in GraphPad Prism for tested representative compounds.

SMILES | EC50 (IL-6) | EC50 [1] | inhibition at 10 µM (IL-6)
CN1CC2CCC(C1)N2C(=O)Nc1cc2cc(-c3cnn(C)c3)ccc2cn1 [Compound 61, 3-Methyl-N-(6-(1-methyl-1H-pyrazol-4-yl)isoquinolin-3-yl)-3,8-diazabicyclo[3.2.1]octane-8-carboxamide] | > 10000 nM | 15 nM | 5.2%
Cc1nnc(-c2ccc3cnc(NC(=O)N4C5CCC4CN(C)C5)cc3c2)s1 [Compound 108, 3-Methyl-N-(6-(5-methyl-1,3,4-thiadiazol-2-yl)isoquinolin-3-yl)-3,8-diazabicyclo[3.2.1]octane-8-carboxamide] | > 10000 nM | 22 nM | 4.1%
Cc1nnc(-c2ccc3cnc(NC(=O)N4[C@@H]5CC[C@H]4C[C@H](NCCC(F)(F)F)C5)cc3c2)s1 [Compound 153, (1R,5S)-N-(6-(5-Methyl-1,3,4-thiadiazol-2-yl)isoquinolin-3-yl)-3-exo-((3,3,3-trifluoropropyl)amino)-8-azabicyclo[3.2.1]octane-8-carboxamide] | > 10000 nM | 528 nM | 9%
Cc1ncc(-c2ccc3cnc(NC(=O)[C@H]4CC[C@H](NCCF)CC4)cc3c2)o1 [Compound 155, trans-4-((2-fluoroethyl)amino)-N-(6-(2-methyloxazol-5-yl)isoquinolin-3-yl) cyclohexane-1-carboxamide] | 1060 nM | 26 nM | –
Cc1nnc(-c2ccc3cnc(NC(=O)N4[C@@H]5CC[C@H]4C[C@@H](NCCC(F)(F)F)C5)cc3c2)s1 [Compound 195, (1R,5S)-cis-N-(6-(5-methyl-1,3,4-thiadiazol-2-yl)isoquinolin-3-yl)-3-((3,3,3-trifluoropropyl)amino)-8-azabicyclo[3.2.1]octane-8-carboxamide] | > 10000 nM | 46 nM | 23.4%
Cc1ncc(-c2ccc3cnc(NC(=O)N(C)C4CCN(C)CC4)cc3c2)o1 [Compound 231, 1-Methyl-3-(6-(2-methyloxazol-5-yl)isoquinolin-3-yl)-1-(1-methylpiperidin-4-yl)urea] | 8280 nM | 110 nM | –

Continued, in another order:

EC50 (IL-6) | SMILES | EC50 [1] | inhibition at 10 µM (IL-6)
6660 nM | Cc1nnc(-c2ccc3cnc(NC(=O)[C@H]4CC[C@H](N(C)C)CC4)cc3c2)s1 [Compound 22, trans-4-(Dimethylamino)-N-(6-(5-methyl-1,3,4-thiadiazol-2-yl)isoquinolin-3-yl)cyclohexane-1-carboxamide] | 11 nM | –
9570 nM | Cc1cn2c(n1)CN(C(=O)Nc1cc3cc(-c4nnc(C)s4)ccc3cn1)CC2 [Compound 58, 2-Methyl-N-(6-(5-methyl-1,3,4-thiadiazol-2-yl)isoquinolin-3-yl)-5,6-dihydroimidazo[1,2-a]pyrazine-7(8H)-carboxamide] | 93 nM | –
> 10000 nM | C[C@@H]1CN(C(=O)Nc2cc3cc(-c4cnn(C)c4)ccc3cn2)CCN1C [Compound 67, (R)-3,4-Dimethyl-N-(6-(1-methyl-1H-pyrazol-4-yl)isoquinolin-3-yl) piperazine-1-carboxamide] | 6 nM | 29.6%
1110 nM | COCCN[C@H]1CC[C@H](C(=O)Nc2cc3cc(-c4cnc(C)o4)ccc3cn2)CC1 [Compound 106, trans-4-((2-Methoxyethyl)amino)-N-(6-(2-methyloxazol-5-yl)isoquinolin-3-yl)cyclohexane-1-carboxamide] | 137 nM | –
1210 nM | COCCN[C@H]1CC[C@H](C(=O)Nc2cc3cc(-c4cnn(C)c4)ccc3cn2)CC1 [Compound 196, trans-4-((2-Methoxyethyl)amino)-N-(6-(1-methyl-1H-pyrazol-4-yl)isoquinolin-3-yl)cyclohexane-1-carboxamide] | 19 nM | –
> 10000 nM | Cc1nnc(-c2cc(F)c3cnc(NC(=O)N(C)C4CCN(C)CC4)cc3c2)s1 [Compound 227, 3-(8-Fluoro-6-(5-methyl-1,3,4-thiadiazol-2-yl)isoquinolin-3-yl)-1-methyl-1-(1-methylpiperidin-4-yl)urea] | 691 nM | 4.9%
> 10000 nM | CN1CCC(N(C)C(=O)Nc2cc3cc(-c4cn(C)nn4)cc(F)c3cn2)CC1 [Compound 228, 3-(8-Fluoro-6-(1-methyl-1H-1,2,3-triazol-4-yl)isoquinolin-3-yl)-1-methyl-1-(1-methylpiperidin-4-yl)urea] | > 10000 nM | 3.3%
> 10000 nM | CN1CCC(N(C)C(=O)Nc2cc3cc(-c4cnn(C)c4)cc(F)c3cn2)CC1 [Compound 230, 3-(8-Fluoro-6-(1-methyl-1H-pyrazol-4-yl)isoquinolin-3-yl)-1-methyl-1-(1-methylpiperidin-4-yl)urea] | 56 nM | 36.6%
